PMC11292009, “Mapping protein binding sites by photoreactive fragment pharmacophores” (Communications Chemistry, 2024)

Tests used:
Type in all cases: binding
[1] = test system: T1, STAT5B-NTD; assay: Intact MS photoaffinity labeling screen, STAT5B-NTD (365 nm, UHPLC-MS); details: for MS labeling percentage, STAT5B: STAT5B-NTD, 365 nm 10 min, no photocatalyst;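 for MS labeling percentage, STAT5B: 0.17 µL of 100 mM DMSO fragment stock added to the protein sample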
T1 construct: His-SUMO (N, cleaved yes); made in house; host or cells: E. coli BL21 RILP
Method in brief: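 Intact-protein labeling detected by UHPLC-MS in positive ion mode over m/z 100–2000. Samples were first photo-crosslinked at 365 nm for 10 min at 4 °C. Before irradiation, 7 µM STAT5B in PBS pH 7.4 was pre-incubated with probe for 1 h in the dark at room temperature.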

[2] = test system: T2, KRas^G12D; assay: Intact MS photoaffinity labeling screen, KRas G12D (302 nm, LCMS-TOF); details: for MS labeling percentage, KRas: KRas G12D, 302 nm 10 min
T2 construct: purchased GSK/GenScript
Method in brief: (§1)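 Labeling detected as mass additions in deconvoluted intact-protein LCMS-TOF spectra. Protein at 1 μM in PBS was first mixed with one fragment per well on ice for 15 min, followed by 10 min UV exposure at 302 nm.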

[3] = test system: T3, BRD4-BD1; assay: Intact MS photoaffinity labeling screen, BRD4-BD1 (302 nm, LCMS-TOF); details: for MS labeling percentage, BRD4: BRD4-BD1, 302 nm 10 min
T3 construct: screened the PhP library against the first bromodomain of BRD4 (BRD4-BD1); purchased GSK/GenScript
Method in brief: as §1

[4] = test system: myoglobin (Myo); assay: Intact protein MS photoaffinity labeling screen, myoglobin; details: intact protein MS after 10 min irradiation
Method in brief: (§2)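 Plate format, one fragment/well; 15 min incubation with protein for non-covalent complex formation; direct intact-protein MS read from plate; labeling % from adduct mass additions.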

[5] = test system: T1, STAT5B-NTD; assay: Intact MS labeling screen, STAT5B-NTD conjugated with photocatalyst Ir-G2-PEG3-COOH (450 nm); details: 450 nm 10 min;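 note: 0.14 µL of 100 mM DMSO fragment stock added to the conjugate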
Method in brief: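 Ir-G2-PEG3-COOH photocatalyst (10 eq) activated 30 min with EDC/NHS/BOP, then conjugated to STAT5B-NTD (7 µM) overnight at RT or 1 h at 37 °C in dark. PhP added, 1 h dark, then 450 nm irradiation 10 min at 4 °C; labeling read by intact LC-MS, positive ion mode, m/z 100–2000.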

[6] = test system: lysozyme (Lyo); assay: Intact protein MS photoaffinity labeling screen, lysozyme; details: intact protein MS after 10 min irradiation
Method in brief: as §2

[7] = test system: carbonic anhydrase II (CA); assay: Intact protein MS photoaffinity labeling screen, carbonic anhydrase; details: intact protein MS after 10 min irradiation
Method in brief: as §2

[8] = sheet PhP, experimental hit status flag given as 0 or 1
[9] = PhP library sheet "PhP", binary flag printed as 0 or 1, key not given

SMILES	MS labeling percentage, STAT5B [1] [%]	STAT5B-NTD (experimental hit status) [1, 8]	MS labeling percentage, KRas [2] [%]	KRAS-G12D (experimental hit status) [2, 8]	MS labeling percentage, BRD4 [3] [%]	BRD4-BD1 (experimental hit status) [3, 8]	MS labeling percentage, Myo [4] [%]	MS labeling percentage, STAT5B+photocat [5] [%]	MS labeling percentage, Lyo [6] [%]	MS labeling percentage, CA [7] [%]	STAT5B-NTD (experimental hit status) [1, 9]	KRAS-G12D (experimental hit status) [2, 9]	BRD4-BD1 (experimental hit status) [3, 9]
CC1(CCC(=O)NCCCc2nc3ccccc3[nH]2)N=N1 [PhP069, N1=NC1(C)CCC(=O)NCCCc(n2)[nH]c(c23)cccc3]	1	0	0.5	0	1.5	0	0.2	0.8	0	0.2			
C[C@@H](NC(=O)CCC1(C)N=N1)[C@@H](O)c1cccc(O)c1 [PhP070, Oc(c1)cccc1[C@H](O)[C@@H](C)NC(=O)CCC2(C)N=N2]	1	0	0	0	0.3	0	0.1	4.2	1	0			
Cc1nc2ccccc2n1CCNC(=O)CCC1(C)N=N1 [PhP073, c1cccc(c12)n(c(n2)C)CCNC(=O)CCC3(C)N=N3]	1	0	0.1	0	0.3	0	0.2	1.6	0	0			
COc1cc(C)nc(NC(=O)CCC2(C)N=N2)n1 [PhP074, COc1cc(C)nc(n1)NC(=O)CCC2(C)N=N2]	1	0	0.4	0	0.4	0	0.4	1.8	0	0.7			
CC1(CCC(=O)Nc2ccc3c(c2)NC(=O)CC3)N=N1 [PhP075, N1=NC1(C)CCC(=O)Nc(cc2)cc(c23)NC(=O)CC3]	2	0	0.2	0	1.3	0	0.1	0.5	0	0.2			
CCc1cc(NC(=O)CCC2(C)N=N2)nc(C)n1 [PhP076, CCc1cc(nc(n1)C)NC(=O)CCC2(C)N=N2]	2	0	0.2	0	0.9	0	0.2	3.2	0	0.1			
CC1CN(Cc2ccccc2NC(=O)CCC2(C)N=N2)CC(C)O1 (stereo not shown) [PhP078, CC1CN(CC(O1)C)Cc2ccccc2NC(=O)CCC3(C)N=N3]	0		0		0.4		0.2	0.7	0	0.4	0	0	0
